Source: patent publication US6737383B1, “Herbicidal oxadiazolidines” (priority 1999, dated 2004)

Columns and labels:
soybean = assay: Test B pre/postemergence soybean; type: in vivo, Glycine max
Summary of the method: (§1)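 Response is a visual 0-to-10 score relative to untreated plants, where 0 means no effect and 10 means complete control, taken twelve to sixteen days after application. Treatments went onto soil at planting and onto foliage of 1- to 4-leaf plants, using a surfactant-containing non-phytotoxic solvent.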

bamyardgrass = assay: Test B flood test barnyardgrass; type: in vivo, Echinochloa crus-galli
Summary of the method: (§2)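 Read-out is a visual response score from 0 (no effect) to 10 (complete control), assigned by comparison with untreated controls. Treatment was applied at the 2-leaf stage, and plants stayed in the greenhouse for twelve to sixteen days before scoring.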

bedstraw = assay: Test B pre/postemergence bedstraw; type: in vivo, Galium aparine
Summary of the method: as §1

cocklebur = assay: Test B pre/postemergence cocklebur; type: in vivo, Xanthium strumarium
Summary of the method: as §1

purple nutsedge = assay: Test B pre/postemergence purple nutsedge; type: in vivo, Cyperus rotundus
Summary of the method: as §1

smallflower flatsedge = assay: Test B flood test smallflower flatsedge; type: in vivo, Cyperus difformis
Summary of the method: as §2

crabgrass = assay: Test B pre/postemergence crabgrass; type: in vivo, Digitaria sanguinalis
Summary of the method: as §1

rice = assay: Test B flood test rice; type: in vivo, Oryza sativa
Summary of the method: as §2

sugar beet = assay: Test B pre/postemergence sugar beet; type: in vivo, Beta vulgaris
Summary of the method: as §1

surinam grass = assay: Test B pre/postemergence surinam grass; type: in vivo, Brachiaria decumbens
Summary of the method: as §1

corn = assay: Test B pre/postemergence corn; type: in vivo, Zea mays
Summary of the method: as §1

velvetleaf = assay: Test B pre/postemergence velvetleaf; type: in vivo, Abutilon theophrasti
Summary of the method: as §1

wheat = assay: Test B pre/postemergence wheat; type: in vivo, Triticum aestivum
Summary of the method: as §1

duck salad = assay: Test B flood test duck salad; type: in vivo, Heteranthera limosa
Summary of the method: as §2

wild oat = assay: Test B pre/postemergence wild oat; type: in vivo, Avena fatua
Summary of the method: as §1

blackgrass = assay: Test B pre/postemergence blackgrass; type: in vivo, Alopecurus myosuroides
Summary of the method: as §1

[1] = Postemergence, Rate 250 g/ha, scale 0 to 10, 0 no effect, 10 complete control
[2] = Postemergence, Rate 1000 g/ha, scale 0 to 10 (0 no effect, 10 complete control)
[3] = Preemergence, Rate 125 g/ha, scale 0 to 10 (0 no effect, 10 complete control)
[4] = Preemergence, Rate 250 g/ha, scale of 0 to 10 where 0 is no effect and 10 is complete control
[5] = Preemergence, Rate 500 g/ha, scale 0 (no effect) to 10 (complete control)
[6] = Rate 125 g/ha, Postemergence, scale 0 to 10, 0 no effect, 10 complete control
[7] = Rate 1000 g/ha, Preemergence, scale 0 to 10 (0 no effect, 10 complete control)
[8] = Rate 125 g/ha, Postemergence section (flood test species), scale 0 to 10, 0 no effect, 10 complete control
[9] = Rate 500 g/ha, Postemergence section of Table B, 0 to 10 scale (0 no effect, 10 complete control)
[10] = flood test, listed under Postemergence, Rate 250 g/ha, scale 0 to 10, 0 no effect, 10 complete control
[11] = Rate 500 g/ha, Postemergence, 0 to 10 scale (0 no effect, 10 complete control)

## COc1ccc(-n2c(=O)on(C(=O)N(c3ccc(F)cc3)C(C)C)c2=O)cc1 [Compound 5]
soybean; [1]
  Soybean plant response rating: 5
soybean; [2]
  Soybean plant response rating: 6
soybean; [3]
  Plant response rating, Soybean: 0
soybean; [4]
  Plant response rating, Soybean: 0
soybean; [5]
  Soybean plant response rating: 0
soybean; [6]
  Soybean plant response rating: 5
soybean; [7]
  Plant response rating, Soybean: 0
bamyardgrass; [2]
  Barnyardgrass plant response rating: 4
bamyardgrass; [8]
  Barnyardgrass plant response rating: 0
bamyardgrass; [9]
  Barnyardgrass plant response rating: 2
bamyardgrass; [10]
  Barnyardgrass plant response rating: 0
bedstraw; [1]
  Bedstraw plant response rating: 4
bedstraw; [2]
  Bedstraw plant response rating: 4
bedstraw; [3]
  Plant response rating, Bedstraw: 0
bedstraw; [4]
  Plant response rating, Bedstraw: 0
bedstraw; [5]
  Bedstraw plant response rating: 0
bedstraw; [6]
  Bedstraw plant response rating: 3
bedstraw; [11]
  Bedstraw plant response rating: 4
bedstraw; [7]
  Plant response rating, Bedstraw: 0
cocklebur; [1]
  Cocklebur plant response rating: 5
cocklebur; [2]
  Cocklebur plant response rating: 8
cocklebur; [3]
  Plant response rating, Cocklebur: 0
cocklebur; [4]
  Plant response rating, Cocklebur: 0
cocklebur; [5]
  Cocklebur plant response rating: 0
cocklebur; [6]
  Cocklebur plant response rating: 5
cocklebur; [11]
  Cocklebur plant response rating: 5
cocklebur; [7]
  Plant response rating, Cocklebur: 0
Purple nutsedge; [1]
  Nutsedge plant response rating: 0
Purple nutsedge; [2]
  Nutsedge plant response rating: 0
Purple nutsedge; [3]
  Plant response rating, Nutsedge: 0
Purple nutsedge; [4]
  Plant response rating, Nutsedge: 0
Purple nutsedge; [5]
  Nutsedge plant response rating: 0
Purple nutsedge; [6]
  Nutsedge plant response rating: 0
Purple nutsedge; [11]
  Nutsedge plant response rating: 0
Purple nutsedge; [7]
  Plant response rating, Nutsedge: 0
Smallflower flatsedge; [2]
  S. Flatsedge plant response rating: 2
Smallflower flatsedge; [8]
  S. Flatsedge plant response rating: 0
Smallflower flatsedge; [10]
  S. Flatsedge plant response rating: 0
crabgrass; [1]
  Crabgrass plant response rating: 6
crabgrass; [2]
  Crabgrass plant response rating: 6
crabgrass; [3]
  Plant response rating, Crabgrass: 3
crabgrass; [4]
  Plant response rating, Crabgrass: 3
crabgrass; [5]
  Crabgrass plant response rating: 6
crabgrass; [6]
  Crabgrass plant response rating: 3
crabgrass; [11]
  Crabgrass plant response rating: 6
crabgrass; [7]
  Plant response rating, Crabgrass: 7
rice; [2]
  Rice plant response rating: 0
rice; [8]
  Rice plant response rating: 0
rice; [9]
  Rice plant response rating: 0
rice; [10]
  Rice plant response rating: 0
Sugar beet; [1]
  Sugarbeets plant response rating: 4
Sugar beet; [2]
  Sugarbeets plant response rating: 7
Sugar beet; [3]
  Plant response rating, Sugarbeets: 0
Sugar beet; [4]
  Plant response rating, Sugarbeets: 0
Sugar beet; [5]
  Sugarbeets plant response rating: 0
Sugar beet; [6]
  Sugarbeets plant response rating: 3
Sugar beet; [7]
  Plant response rating, Sugarbeets: 0
Surinam grass; [1]
  B. signalgrass plant response rating: 0
Surinam grass; [2]
  B. signalgrass plant response rating: 4
Surinam grass; [3]
  Plant response rating, B. signalgrass: 3
Surinam grass; [4]
  Plant response rating, B. signalgrass: 3
Surinam grass; [5]
  B. signalgrass plant response rating: 3
Surinam grass; [6]
  B. signalgrass plant response rating: 0
Surinam grass; [11]
  B. signalgrass plant response rating: 0
Surinam grass; [7]
  Plant response rating, B. signalgrass: 8
corn; [1]
  Corn plant response rating: 0
corn; [2]
  Corn plant response rating: 0
corn; [3]
  Plant response rating, Corn: 0
corn; [4]
  Plant response rating, Corn: 0
corn; [5]
  Corn plant response rating: 0
corn; [6]
  Corn plant response rating: 0
corn; [11]
  Corn plant response rating: 0
corn; [7]
  Plant response rating, Corn: 0
velvetleaf; [1]
  Velvetleaf plant response rating: 5
velvetleaf; [2]
  Velvetleaf plant response rating: 7
velvetleaf; [3]
  Plant response rating, Velvetleaf: 0
velvetleaf; [4]
  Plant response rating, Velvetleaf: 0
velvetleaf; [5]
  Velvetleaf plant response rating: 0
velvetleaf; [6]
  Velvetleaf plant response rating: 4
velvetleaf; [7]
  Plant response rating, Velvetleaf: 0
wheat; [1]
  Wheat plant response rating: 1
wheat; [2]
  Wheat plant response rating: 2
wheat; [3]
  Plant response rating, Wheat: 0
wheat; [4]
  Plant response rating, Wheat: 0
wheat; [5]
  Wheat plant response rating: 0
wheat; [6]
  Wheat plant response rating: 0
wheat; [7]
  Plant response rating, Wheat: 0
Duck salad; [2]
  Ducksalad plant response rating: 0
Duck salad; [8]
  Ducksalad plant response rating: 0
Duck salad; [9]
  Ducksalad plant response rating: 0
Duck salad; [10]
  Ducksalad plant response rating: 0
Wild oat; [1]
  Wild oats plant response rating: 1
Wild oat; [2]
  Wild oats plant response rating: 1
Wild oat; [3]
  Plant response rating, Wild oats: 0
Wild oat; [4]
  Plant response rating, Wild oats: 6
Wild oat; [5]
  Wild oats plant response rating: 6
Wild oat; [6]
  Wild oats plant response rating: 0
Wild oat; [7]
  Plant response rating, Wild oats: 6
blackgrass; [1]
  Blackgrass plant response rating: 5
blackgrass; [2]
  Blackgrass plant response rating: 8
blackgrass; [3]
  Plant response rating, Blackgrass: 3
blackgrass; [4]
  Plant response rating, Blackgrass: 3
blackgrass; [5]
  Blackgrass plant response rating: 5
blackgrass; [6]
  Blackgrass plant response rating: 4
blackgrass; [11]
  Blackgrass plant response rating: 4
blackgrass; [7]
  Plant response rating, Blackgrass: 8
